Experimental data as given in ChEMBL document CHEMBL1201862, “PubChem BioAssay data set” (2004).
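Growth conditions: 96-well plates. Treatment: test compound, 48 hours, 5 concentrations. Analysis: linear interpolation between bracketing concentrations; unreached endpoints set to highest concentration. Here, GI50 denotes the concentration required for 50% inhibition of growth.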 Calls of active or inactive are those of the source. No stated cut-off is given here; in the data, active = GI50 up to about 1.1 µM and inactive = higher.

How the values were obtained:
Assay in all cases: inhibition of tumour cell growth, NCI panel, 48 h
RPMI-8226 = tested on: RPMI-8226
OVCAR-8 = tested on: OVCAR-8
OVCAR-4 = tested on: OVCAR-4
SW-620 = tested on: SW-620
SK-OV-3 = tested on: SK-OV-3
HL-60 = tested on: HL-60
COLO 205 = tested on: COLO 205
CAKI-1 = tested on: CAKI-1
Hs-578T = tested on: Hs-578T
SN12C = tested on: SN12C
SK-MEL-2 = tested on: SK-MEL-2
HOP-62 = tested on: HOP-62
NCI-H522 = tested on: NCI-H522
UO-31 = tested on: UO-31
U-251 = tested on: U-251
NCI-H23 = tested on: NCI-H23
CCRF-CEM = tested on: CCRF-CEM
A549 = tested on: A549
SNB-19 = tested on: SNB-19
OVCAR-3 = tested on: OVCAR-3

Row | Compound | GI50 (RPMI-8226) | GI50 (OVCAR-8) | GI50 (OVCAR-4) | GI50 (SW-620) | GI50 (SK-OV-3) | GI50 (HL-60) | GI50 (COLO 205) | GI50 (CAKI-1) | GI50 (Hs-578T) | GI50 (SN12C) | GI50 (SK-MEL-2) | GI50 (HOP-62) | GI50 (NCI-H522) | GI50 (UO-31) | GI50 (U-251) | GI50 (NCI-H23) | GI50 (CCRF-CEM) | GI50 (A549) | GI50 (SNB-19) | GI50 (OVCAR-3)
1 | CC#CC(=O)SCCNC(=O)CC | > 5.15 µM (inactive) | > 10 µM (inactive) | 4.48 µM (inactive) | 3.01 µM (inactive) | > 10 µM (inactive) | > 5.57 µM (inactive) | 3.27 µM (inactive) | > 10 µM (inactive) | > 10 µM (inactive) | > 10 µM (inactive) | > 10 µM (inactive) | > 10 µM (inactive) | 1.62 µM (inactive) | > 10 µM (inactive) | > 10 µM (inactive) | > 10 µM (inactive) | 3.05 µM (inactive) | > 10 µM (inactive) | > 10 µM (inactive) | > 10 µM (inactive)
2 | Cc1ccc(C(=O)/C=C(O)/C(O)=C/C(=O)c2ccc(C)cc2C)c(C)c1 | 2.01 µM (inactive) | 2.86 µM (inactive) | 2.7 µM (inactive) | 2.37 µM (inactive) | 1.94 µM (inactive) | 0.0641 µM (active) | 1.82 µM (inactive) | 2.07 µM (inactive) | 2.21 µM (inactive) | 2.1 µM (inactive) | 1.87 µM (inactive) | 1.58 µM (inactive) | 1.64 µM (inactive) | 1.36 µM (inactive) | 1.75 µM (inactive) | 1.65 µM (inactive) | 0.175 µM (active) | 2.48 µM (inactive) | 2.49 µM (inactive) | 1.76 µM (inactive)
3 | CC1(C)CCCCCC(O)C(O)CCC(C)(C)C1=O (stereo not given) | > 100 µM (inactive) | > 100 µM (inactive) | > 100 µM (inactive) | > 100 µM (inactive) | > 100 µM (inactive) | > 100 µM (inactive) | > 100 µM (inactive) | > 100 µM (inactive) | > 100 µM (inactive) | > 100 µM (inactive) | > 100 µM (inactive) | > 100 µM (inactive) | 83.9 µM (inactive) | > 100 µM (inactive) | > 100 µM (inactive) | > 100 µM (inactive) | > 100 µM (inactive) | > 100 µM (inactive) | > 100 µM (inactive) | > 100 µM (inactive)
4 | O=C(NCCc1ccccn1)c1ccc2cc(C(=O)N3CC(CCl)c4ccc([N+](=O)[O-])cc43)[nH]c2c1 (stereo not given) | > 100 µM (inactive) | 9.12 µM (inactive) | 4.31 µM (inactive) | > 100 µM (inactive) | 10.6 µM (inactive) | > 100 µM (inactive) | > 100 µM (inactive) | > 24.2 µM (inactive) | 94.6 µM (inactive) | > 65 µM (inactive) | > 100 µM (inactive) | 13.2 µM (inactive) | 9.82 µM (inactive) | > 49.8 µM (inactive) | 18.5 µM (inactive) | 45.3 µM (inactive) | > 100 µM (inactive) | > 72.9 µM (inactive) | 12.1 µM (inactive) | 5.52 µM (inactive)
5 | CC(C)=CCCC(C)C1=C(O)C(=O)C(C)=CC1=O (stereo not given) | 0.838 µM (active) | 18.1 µM (inactive) | 6.41 µM (inactive) | 5.94 µM (inactive) | 28.1 µM (inactive) | 0.332 µM (active) | 5.75 µM (inactive) | 5.89 µM (inactive) | 25.1 µM (inactive) | 14.7 µM (inactive) | 17.7 µM (inactive) | 18.9 µM (inactive) | 2.1 µM (inactive) | 7.82 µM (inactive) | 22.9 µM (inactive) | 16.7 µM (inactive) | 0.614 µM (active) | 45.5 µM (inactive) | 38.1 µM (inactive) | 7.53 µM (inactive)
6 | Cc1cc(C)nc(NS(=O)(=O)c2ccc(NNc3c4ccccc4nc4c(C(=O)Nc5ccc(S(=O)(=O)Nc6ncccn6)cc5)cccc34)cc2)n1 | 29.9 µM (inactive) | 26.2 µM (inactive) | 33.7 µM (inactive) | 21.6 µM (inactive) | 31.5 µM (inactive) | 25.7 µM (inactive) | 27.1 µM (inactive) | 36.3 µM (inactive) | 71.8 µM (inactive) | 20.4 µM (inactive) | 16.2 µM (inactive) | 33.5 µM (inactive) | 18.7 µM (inactive) | 30.2 µM (inactive) | 21.8 µM (inactive) | 23 µM (inactive) | 22.8 µM (inactive) | 38.7 µM (inactive) | 34.6 µM (inactive) | 19.2 µM (inactive)
7 | CC(=O)N1c2ccccc2C(C)C1c1[nH]c2ccccc2c1C (stereo not given) | 13 µM (inactive) | 20.8 µM (inactive) | 23.4 µM (inactive) | 27.5 µM (inactive) | 19.7 µM (inactive) | 18.6 µM (inactive) | 13.5 µM (inactive) | 22.8 µM (inactive) | 16.6 µM (inactive) | 17.1 µM (inactive) | 17.7 µM (inactive) | 19.2 µM (inactive) | 15.9 µM (inactive) | 17.2 µM (inactive) | 20.5 µM (inactive) | 23.8 µM (inactive) | 25.6 µM (inactive) | 23.4 µM (inactive) | 31.6 µM (inactive) | 19.5 µM (inactive)
